Assay results as given in the supplement of paper PMC11451515.

Test system: NOMO1
Assay: cell viability relative to DMSO control; higher = less cytotoxic
Settings: 48 h
Outline: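 Cells were incubated for 48 h at 37°C before CellTiter-Glo One luminescence was read. The cells were NOMO1 or SEM (500 cells/well) or P12-Ichikawa (1000 cells/well) leukemia cells, adapted for at least four passages in each medium and seeded in 1536-well plates (5 μl). Dosing used library compounds in DMSO applied by pin over 11 threefold points, 47 μM to 0.79 nM. Viability is the per-plate percentage of DMSO wells, with cell-free wells as background.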

[1] = HPLM + 10% dialyzed FBS, 0.000781 µM
[2] = HPLM + 10% dialyzed FBS, 0.00234 µM
[3] = HPLM + 10% dialyzed FBS, 0.00702 µM
[4] = HPLM + 10% dialyzed FBS, 0.0211 µM
[5] = HPLM + 10% dialyzed FBS, 0.0632 µM
[6] = HPLM + 10% dialyzed FBS, 0.19 µM
[7] = HPLM + 10% dialyzed FBS, 0.569 µM
[8] = HPLM + 10% dialyzed FBS, 1.71 µM
[9] = HPLM + 10% dialyzed FBS, 5.12 µM
[10] = HPLM + 10% dialyzed FBS, 15.4 µM
[11] = HPLM + 10% dialyzed FBS, 46.1 µM
[12] = RPMI 5 mM glucose + 10% FBS, 0.000781 µM
[13] = RPMI 5 mM glucose + 10% FBS, 0.00234 µM
[14] = RPMI 5 mM glucose + 10% FBS, 0.00702 µM
[15] = RPMI 5 mM glucose + 10% FBS, 0.0211 µM
[16] = RPMI 5 mM glucose + 10% FBS, 0.0632 µM
[17] = RPMI 5 mM glucose + 10% FBS, 0.19 µM
[18] = RPMI 5 mM glucose + 10% FBS, 0.569 µM
[19] = RPMI 5 mM glucose + 10% FBS, 1.71 µM
[20] = RPMI 5 mM glucose + 10% FBS, 5.12 µM
[21] = RPMI 5 mM glucose + 10% FBS, 15.4 µM
[22] = RPMI 5 mM glucose + 10% FBS, 46.1 µM
[23] = RPMI 5 mM glucose + 10% dialyzed FBS, 0.000781 µM
[24] = RPMI 5 mM glucose + 10% dialyzed FBS, 0.00234 µM
[25] = RPMI 5 mM glucose + 10% dialyzed FBS, 0.00702 µM
[26] = RPMI 5 mM glucose + 10% dialyzed FBS, 0.0211 µM
[27] = RPMI 5 mM glucose + 10% dialyzed FBS, 0.0632 µM
[28] = RPMI 5 mM glucose + 10% dialyzed FBS, 0.19 µM
[29] = RPMI 5 mM glucose + 10% dialyzed FBS, 0.569 µM
[30] = RPMI 5 mM glucose + 10% dialyzed FBS, 1.71 µM
[31] = RPMI 5 mM glucose + 10% dialyzed FBS, 5.12 µM
[32] = RPMI 5 mM glucose + 10% dialyzed FBS, 15.4 µM
[33] = RPMI 5 mM glucose + 10% dialyzed FBS, 46.1 µM

SMILES	cell viability [1] [%]	cell viability [2] [%]	cell viability [3] [%]	cell viability [4] [%]	cell viability [5] [%]	cell viability [6] [%]	cell viability [7] [%]	cell viability [8] [%]	cell viability [9] [%]	cell viability [10] [%]	cell viability [11] [%]	cell viability [12] [%]	cell viability [13] [%]	cell viability [14] [%]	cell viability [15] [%]	cell viability [16] [%]	cell viability [17] [%]	cell viability [18] [%]	cell viability [19] [%]	cell viability [20] [%]	cell viability [21] [%]	cell viability [22] [%]	cell viability [23] [%]	cell viability [24] [%]	cell viability [25] [%]	cell viability [26] [%]	cell viability [27] [%]	cell viability [28] [%]	cell viability [29] [%]	cell viability [30] [%]	cell viability [31] [%]	cell viability [32] [%]	cell viability [33] [%]
CC1OC(OC/2=C(/OC3=C(C(=CC(=C3)O)O)C2=O)C4=CC=C(O)C=C4)C(O)C(OC(C)=O)C1OC(C)=O (stereo not drawn)	119	109	137	130	111	110	112	112	120	101	78.9	120	116	110	100	117	111	96.8	96.9	103	94.3	68.9	96.7	108	109	111	112	114	118	104	111	99.2	77.2
Cc1ccc(F)c(NC(=O)Nc2ccc(-c3cccc4[nH]nc(N)c34)cc2)c1	91.4	111	118	125	115	111	110	110	117	93.8	86.6	99.6	125	121	108	123	118	113	115	118	114	105	106	112	108	123	116	105	120	117	104	111	87.8
c1ccc2c(-c3cnn4cc(-c5ccc(N6CCNCC6)cc5)cnc34)ccnc2c1	79.8	77.8	134	166	144	143	146	121	114	111	90.3	93.8	91.3	139	133	132	137	128	126	122	120	87.7	83.9	72	122	120	173	150	141	144	146	117	77.8
COC1=CC=C2C(=CC=NC2=C1)OC3=CC=C(NC(=O)\C4=C(C)\N(CC(C)(C)O)N(C4=O)C5=CC=CC=C5)C=C3F	124	116	104	115	132	120	108	107	125	110	105	–	–	–	–	–	–	–	–	–	–	–	–	–	–	–	–	–	–	–	–	–	–
C[C@H]1[C@@H](CC(C[C@H]2O[C@@H]3O[C@]4(C)CC[C@H]5[C@H](C)CC[C@@H]([C@H]2C)[C@@]35OO4)C[S+](=O)([O-])c2ccc(COC(=O)N(C)C)cc2)O[C@@H]2O[C@]3(C)CC[C@H]4[C@H](C)CC[C@@H]1[C@@]24OO3	122	123	116	120	127	110	44.8	22.5	22.3	17.9	10.8	114	119	113	98.9	103	101	82.5	28	21.8	17	15.1	109	118	100	110	108	91.9	32.3	22.5	24	18.8	14.8
c1cc(OCCN2CCCCC2)cc(-c2n[nH]c3ccc(-c4nc[nH]n4)cc23)c1	116	120	129	127	137	103	127	127	114	122	100	115	115	113	105	103	122	112	111	103	104	109	99.5	97.1	101	108	101	109	114	105	111	101	109
c1ccc2c(Oc3nc(Nc4ccc(N5CCOCC5)cc4)c4ncn(C5CCCCC5)c4n3)cccc2c1	–	–	–	–	–	–	–	–	–	–	–	113	117	129	127	126	133	131	149	132	153	136	102	121	126	143	125	146	139	127	123	124	135
N#Cc1c(C2CCNCC2)cc(-c2c(O)cccc2OCC2CC2)nc1N	110	116	126	115	103	113	121	104	105	90.1	99.1	102	115	104	118	111	104	113	102	93.6	88.4	80.9	115	101	117	116	111	105	117	104	94.2	88.3	74.4
C[Se]CCC(N)C(=O)O (stereo not drawn)	90.1	90.2	85.7	95.7	99.3	93	93.1	59.1	83.5	69	73.7	79.9	83.5	97.2	84.4	88.5	83.3	89.3	86.7	79.4	84	79	77.2	87.3	85.4	81.9	91.1	89.1	73.1	77	95.7	74.2	76.2
CC1(C)OC/2=C(\[C@H](NCC3=CC=CC=C3)[C@@H]1O)C(=O)C4=CC=CC=C4C2=O	112	36.5	117	101	104	96.1	108	82.5	37.6	22.4	7.72	89.7	99.6	89.2	95.5	86.7	93.8	95	98.2	37.4	17.5	5.95	86.7	90.2	88.1	89.3	98.3	92.6	97.6	86.9	60.2	26.7	5.24
c1cc(-c2sc(-c3ccncc3)c(-c3ccncc3)c2-c2ccncc2)ccn1	88.1	111	117	111	108	129	140	114	124	116	78.3	118	128	106	105	113	118	127	103	98.2	109	93.4	94.1	107	106	104	117	106	114	105	101	90.9	92.3
CCC1=C(C)CN(C(=O)NCCc2ccc(S(=O)(=O)NC(=O)N[C@H]3CC[C@H](C)CC3)cc2)C1=O	97.4	93.3	105	102	104	112	101	108	87	83.3	116	86.3	86.4	91.1	98.4	88.3	100	90.3	89.3	95.4	91.4	95.3	82.2	97.7	97.6	92.3	99.5	93	96.3	94.1	99.3	92.5	104
Cn1cc(-c2ccncc2)c(-c2ccc(OCc3ccc4ccccc4n3)cc2)n1	–	–	–	–	–	–	–	–	–	–	–	–	–	–	–	–	–	–	–	–	–	–	102	123	133	125	114	117	131	123	109	111	98.4
CC(=O)SCC(Cc1ccccc1)C(=O)NCC(=O)OCc1ccccc1 (stereo not drawn)	88.4	85.1	102	104	102	106	107	88.9	63.9	14.7	9.71	81.7	82.6	80.3	93.4	84.3	89.4	95.2	95	72.1	15.1	10.7	78.2	74.3	86.7	85.6	96.9	98.4	95.6	76.8	65.6	13.4	13.2
C=C1C[C@@]2(O)O[C@@]3(C[C@H]2C(C)C)[C@@H](C)CC[C@@H]13	120	94.8	122	133	121	134	114	117	134	132	111	108	114	122	126	136	119	121	122	130	119	135	114	125	118	109	117	122	98.1	102	121	102	124
Cc1c(OCC(F)(F)F)ccnc1C[S+]([O-])c1nc2ccccc2[nH]1 (stereo not drawn)	100	100	107	96.6	108	118	122	97.7	113	122	110	110	114	105	113	105	108	119	103	118	108	117	102	111	111	109	113	113	115	120	128	113	123
